Measured values reported in US10689526B2, “N-halamines compounds as multifunctional additives” (BOARD OF REGENTS, THE UNIVERSITY OF TEXAS SYSTEM, priority 2005, dated 2020).
Blank lines part the entries; values can stand above or below the compound they belong to.

Assays:
[1] = test system: Escherichia coli (E. coli, ATCC 15597, gram-negative); assay: Antimicrobial activity of CADMH in aqueous suspension; format: cell-based; settings: for contact time for a total kill of 10^8-10^9 CFU/mL of E. coli: 500 ppm of active chlorine content; for % of kill of E. coli / log reduction of E. coli: 1000 ppm of active chlorine content
Description: (§1) In other examples to evaluate antimicrobial activities of CADMH, Escherichia coli (e.g., E. coli, ATCC® 15597™, gram-negative) and Staphylococcus aureus subsp. aureus (e.g., S. aureus, ATCC® 6538™, gram-positive) were used as model microorganisms to challenge the antimicrobial functions of the samples. In the microbial studies, the bacteria were grown in broth solutions (e.g., LB broth for E. coli; Tryptic Soy broth for S. aureus) overnight at 37° C. Cells were harvested in a centrifuge, washed twice with phosphate buffered saline (e.g., PBS, OmniPur®, NaCl, 8.0 g/L; KCl, 0.20 g/L; Na2HPO4, 1.42 g/L; KH2PO4, 1.36 g/L; pH 7.4), re-suspended in PBS, and then diluted to concentrations of 10^8-9 CFU/mL. A known amount of CADMH (particle size: 60-80 mesh) was dispersed in 10 mL of sterilized distilled water. The mixture was vortexed and then sonicated for 10 minutes. Then, 100 μL of the bacteria suspension were added into the CADMH-containing suspension and the resultant mixture was vortexed for 60 seconds. After a certain period of contact time under constant shaking, the mixture was poured into 90 mL of 0.03 wt % sterilized sodium thiosulfate aqueous solution to quench the active chlorine and stop the antimicrobial test. […] The resulting solutions were vortexed for 2 minutes and then serially diluted, and each dilution was placed onto LB agar (for E. coli) or Tryptic soy agar (for S. aureus). The same procedure was also applied to the correspondent unchlorinated samples as controls. Bacterial colonies on the plates were counted after incubation at 37° C. for 24 hours.

[2] = test system: Staphylococcus aureus subsp. aureus (S. aureus, ATCC 6538, gram-positive); assay: as above; format: cell-based; settings: for contact time for a total kill of 10^8-10^9 CFU/mL of S. aureus: 500 ppm of active chlorine content
Description: as §1

Solubility in water = format: physicochemical
E. coli = assay: Antimicrobial activity of CADMH-containing PS or HDPE films (sandwich test); format: cell-based
Description: Preparation of CADMH-containing polymeric materials. PS and HDPE were used as the model polymers to preliminarily evaluate the antimicrobial activities of CADMH as additives. In the preparation of CADMH-containing PS films, a certain amount of CADMH was dissolved in 5% PS solutions in THF. The solution was poured onto glass slides. The glass slides were put in a fume hood for 2 days at room temperature to evaporate most of the solvent, and then further dried in a vacuum oven at 30° C. for 3 days to obtain polymer films (100±10 μm of thickness). To prepare CADMH-containing HDPE films, a predetermined amount of CADMH was added into 5% HDPE solutions in hot o-xylene under constant stirring. After evaporation of the solvent, polymer films having a thickness of about 70±5 μm were obtained by hot pressing at 140° C. for 15 seconds. The chlorine contents of the CADMH-containing PS and HDPE films were determined by iodimetric titration, as described above. Pure PS or HDPE films without the presence of CADMH were prepared using the same procedures as controls.
Antimicrobial activity of CADMH-containing polymers. In the antimicrobial tests of CADMH-containing PS or HDPE films, 10 μL of E. coli suspensions (e.g., 10^8-10^9 CFU/mL) were placed onto the surface of a film (e.g., 4×4 cm). The film was then covered with another identical film. A 100 grams weight was added onto the whole “sandwich” to ensure sufficient contact. At different contact time, the “sandwich” was transferred into 10 mL of 0.03 wt % sodium thiosulfate aqueous solution to quench the active chlorine of the samples. The mixture was sonicated for 20 minutes and vortexed for 60 seconds to remove the adherent bacteria into the solution. The resultant solution was serially diluted, and each dilution was placed onto LB agar plates. The same procedure was also applied to the pure PS or HDPE films as controls. Bacterial colonies were counted after 24 hours of incubation at 37° C.

[3] = Storage stability, active chlorine content by iodimetric titration; format: physicochemical; settings: PS and HDPE films, storage for 4 months at 23±2° C. and 70±5% RH
Description: After storage for about 4 months under ambient conditions (e.g., 23±2° C., 70±5% RH), all the samples retained more than 96% of their original chlorine contents. The antimicrobial functions were tested monthly during the storage period, and after 4 months of storage, the minimum contact time of the samples for a total kill of 10^8-10^9 CFU/mL of E. coli or S. aureus was unchanged.

[4] = Thermal properties by DSC; format: physicochemical
Description: Thermal properties of the samples were examined with DSC, and the representative DSC curves are shown in FIG. 6 using DCSDMH and Cl-DCSDMH as examples. […] After chlorination, the N—H bond in DCSDMH is transformed into N—Cl group, and because of the lack of hydrogen bonding, the melting point of Cl-DCSDMH decreases to 52.4° C.

S. epidermidis = assay: Anti-biofilm functions of N-halamine-containing samples (recovered bacteria, SEM); format: cell-based; settings: polyurethane samples containing 4% additive, three days of immersion in S. epidermidis
Description: Preparation of N-halamine-containing materials. In one example, a predetermined amount of Cl-ODDMH (e.g., 1%, 2% and 4% to PU) was added into 5% polyurethane (Noveon) solutions in THF under constant stirring to from a clear solution. The solution was cast onto Teflon sheets in a fume hood at room temperature for 2 days to produce thin films (e.g., 170±10 μm of thickness). The films were further dried under vacuum at 50° C. for 3 days. Cl-ODDMH-containing PU sheets (e.g., 4×4 cm) or discs (e.g., 0.5 cm of diameter) were cut sterilely from the films. Pure PU sheets or discs were prepared under the same conditions as controls.
Anti-biofilm functions. The samples were immersed individually in sealed tubes containing 5 mL of S. epidermidis broth suspension (10^6-10^7 CFU/mL of bacteria) in a shaking water bath at 37° C. and 30 RPM. […] The solution was serially diluted, and 100 μL of each dilution was plated onto agar plates. The same procedure was applied to the untreated samples as controls. Bacterial colonies were counted after incubation at 37° C. for between about 24 and 48 hours. SEM studies were used to confirm the biofilm controlling function. PU discs with or without the presence of Cl-ODDMH were immersed in 5 mL 10^6-10^7 CFU/mL of S. epidermidis broth suspensions in a water bath at 37° C. and 30 RPM. […]

[5] = DSC and TGA thermal analysis of Cl-BTMP; format: physicochemical
[6] = 1000 ppm of active chlorine content, 5 minutes of contact
[7] = 1000 ppm active chlorine content

Structure (SMILES): CCCCCCCCCCCCCCCCCCCCCCN1C(=O)N(Cl)C(C)(C)C1=O [Cl-DCSDMH]
contact time for a total kill of 10^8-10^9 CFU/mL of E. coli [1]: 60 minutes
contact time for a total kill of 10^8-10^9 CFU/mL of S. aureus [2]: 60 minutes
contact time for a total kill of 10^8-10^9 CFU/mL of E. coli (E. coli; 1% additive in HDPE films): 4 hours
contact time for a total kill of 10^8-10^9 CFU/mL of E. coli (E. coli; 1% additive in PS films): 4 hours
antimicrobial activities of the films after storage (E. coli; PS and HDPE films, storage for 4 months at 23±2° C. and 70±5% RH): no changes
solubility in water (in words) (Solubility in water): insoluble
active chlorine contents of the films after storage [3]: no changes
exothermic peak in the DSC curve (decomposition of the N—Cl bond) [4]: 176.0 °C

Structure (SMILES): CCCCCCCCCCCCCCCCCCN1C(=O)N(Cl)C(C)(C)C1=O [Cl-ODDMH]
bacteria recovered from the samples (S. epidermidis): less than 50 CFU/cm^2

Continued, in another order:

solubility in water (in words) (Solubility in water): insoluble
Structure (SMILES): CCCCCCN1C(=O)N(Cl)C(C)(C)C1=O [Cl-HDMH]
contact time for a total kill of 10^8-10^9 CFU/mL of E. coli [1]: 30 minutes
% of kill of E. coli ([1]; 5 minutes of contact): 99%
log reduction of E. coli ([1]; 5 minutes of contact): 2 log
% of kill of E. coli ([1]; contact time 15 minutes): 99.999%
log reduction of E. coli ([1]; contact time 15 minutes): 5 log
contact time for a total kill of 10^8-10^9 CFU/mL of S. aureus [2]: 30 minutes
% of kill of S. aureus [2, 6]: 100%
log reduction of S. aureus [2, 6]: 7 log
log reduction of S. aureus ([2]; 1000 ppm of active chlorine content, contact time 15 minutes): 8 log

solubility in water (Solubility in water; 23° C.): ca. 3 g/L
Structure (SMILES): CCN1C(=O)N(Cl)C(C)(C)C1=O [Cl-EDMH]
contact time for a total kill of 10^8-10^9 CFU/mL of E. coli [1]: less than 5 minutes
contact time for total kill of E. coli [1, 7]: less than 5 minutes
contact time for a total kill of 10^8-10^9 CFU/mL of S. aureus [2]: less than 5 minutes
contact time for total kill of S. aureus [2, 7]: less than 5 minutes

thermally stable up to [5]: up to 200 °C
Structure (SMILES): CC1(C)CC(OC(=O)CCCCCCCCC(=O)OC2CC(C)(C)N(Cl)C(C)(C)C2)CC(C)(C)N1Cl [Cl-BTMP, bis(N-chloro-2,2,6,6-tetramethyl-4-piperidinyl) sebacate]
